Test [1] addresses T1, Adenosine receptor A1 (Gallus gallus, UniProt P49892).
T1 sequence (P49892 whole entry): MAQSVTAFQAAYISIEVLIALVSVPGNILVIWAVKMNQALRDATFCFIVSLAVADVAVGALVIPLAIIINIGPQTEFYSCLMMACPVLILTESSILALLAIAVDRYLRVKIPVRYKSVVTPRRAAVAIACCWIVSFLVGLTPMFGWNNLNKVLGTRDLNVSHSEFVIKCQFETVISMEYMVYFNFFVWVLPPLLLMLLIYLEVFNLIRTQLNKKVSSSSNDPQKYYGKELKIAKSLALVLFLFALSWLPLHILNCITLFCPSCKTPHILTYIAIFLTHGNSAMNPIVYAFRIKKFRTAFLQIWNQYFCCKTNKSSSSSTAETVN
Briefly: Displacement of [125I]ABA from adenosine A1 receptor of chick cerebellar membrane.

Test [2] can be described thus: Relative affinities for adenosine A2 and A1 receptors.
The target in a further test is Adenosine A2 receptor (Rattus norvegicus, UniProt P29276+P30543).
Test [3] addresses T1, Adenosine receptor A1. Briefly: Binding affinity for Adenosine A1 receptor using [125I]-ABA in chick cerebellar membrane. Format: cell membranes, Cerebellum.

pIC50: −log10 of the molar value.

Description for Adenosine A2 receptor: Displacement of [3H]-NECA from adenosine A2 receptor of rat striatal membrane

As for `OC[C@H]1OC(n2cnc3c(Nc4ccc(F)cc4)ncnc32)[C@H](O)[C@@H]1O` (stereo partly drawn), the pIC50 – broadly, −log10 of the IC50, conventionally taken in molar units – on Adenosine receptor A1 [1] is 7.88. Also, in test [2], the Selectivity came out at 65. Besides, the IC50 (commonly the concentration at which inhibition is half-maximal) on Adenosine A2 receptor was determined as 860 nM.
On the same counts, the results for `COc1ccc(Nc2ncnc3c2ncn3[C@@H]2O[C@H](CO)[C@@H](O)[C@H]2O)cc1` are 8.19, 275 and 1760 nM.
The molecule `CCc1ccc(Nc2ncnc3c2ncn3C2O[C@H](CO)[C@@H](O)[C@H]2O)cc1` (stereo partly drawn) gave a pIC50 at Adenosine receptor A1 [1] of 7.89. In addition, the Selectivity in test [2] amounted to 75. Moreover, the half-inhibitory concentration (IC50) on Adenosine A2 receptor was 960 nM.
For `OC[C@H]1OC(n2cnc3c(Nc4cccc(O)c4)ncnc32)[C@H](O)[C@@H]1O` (stereo partly drawn), on Adenosine receptor A1 [3], the pIC50 was 7.95. Besides, in test [2], the Selectivity was 690. This molecule displayed an IC50 against Adenosine A2 receptor of 7640 nM.
Molecule `OC[C@H]1OC(n2cnc3c(Nc4cccc(B(O)O)c4)ncnc32)[C@H](O)[C@@H]1O` (stereo partly drawn) showed a pIC50 at Adenosine receptor A1 [1] of 7.38. The same molecule came in with a Selectivity in test [2] of 220. For the same molecule, at Adenosine A2 receptor, the half-inhibitory concentration (IC50) came to 9300 nM.
On the same counts, the results for `Nc1cccc(Nc2ncnc3c2ncn3C2O[C@H](CO)[C@@H](O)[C@H]2O)c1` (stereo partly drawn) are 7.35, 225 and 10100 nM.
At Adenosine receptor A1 [1], `OC[C@H]1O[C@@H](n2cnc3c(Nc4ccccc4)ncnc32)[C@H](O)[C@@H]1O` [N6-PHENYLADENOSINE] showed a pIC50 of 8.34. The same molecule showed a Selectivity in test [2] of 140. This molecule registered a concentration for half-maximal inhibition (IC50) at Adenosine A2 receptor of 660 nM.
On the same counts, the results for `OC[C@H]1OC(n2cnc3c(Nc4cccc(I)c4)ncnc32)[C@H](O)[C@@H]1O` (stereo partly drawn) are 7.72, 620 and 11900 nM.
`Cc1ccc(Nc2ncnc3c2ncn3C2O[C@H](CO)[C@@H](O)[C@H]2O)cc1` (stereo partly drawn) showed a pIC50 on Adenosine receptor A1 [1] of 8.07. In test [2], this molecule returned a Selectivity of 110. Further, the concentration for half-maximal inhibition (IC50) at Adenosine A2 receptor amounted to 920 nM.
In turn, `OC[C@H]1O[C@@H](n2cnc3c(NC4CCCCC4)ncnc32)[C@H](O)[C@@H]1O` had a negative-log IC50 (pIC50) at Adenosine receptor A1 [1] of 8.60.
Turning to `OC[C@H]1OC(n2cnc3c(Nc4cccc(F)c4)ncnc32)[C@H](O)[C@@H]1O` (stereo partly drawn), the negative logarithm of the IC50 (pIC50) at Adenosine receptor A1 [1] is 7.99. The same molecule yielded a Selectivity in test [2] of 155. On Adenosine A2 receptor, this molecule gave a concentration for half-maximal inhibition (IC50) of 1600 nM.
As to `CCc1cccc(Nc2ncnc3c2ncn3C2O[C@H](CO)[C@@H](O)[C@H]2O)c1` (stereo partly drawn), the negative logarithm of the IC50 (pIC50) at Adenosine receptor A1 [1] was 7.60. The Selectivity in test [2] is 403. Moreover, the half-inhibitory concentration (IC50) on Adenosine A2 receptor came out at 10200 nM.
In the case of `OC[C@H]1OC(n2cnc3c(Nc4ccc(I)cc4)ncnc32)[C@H](O)[C@@H]1O` (stereo partly drawn), the negative-log IC50 (pIC50) at Adenosine receptor A1 [1] was 8.07. Also, in test [2], the Selectivity was 150. Further, on Adenosine A2 receptor, the half-inhibitory concentration (IC50) is 1280 nM.
`CCNC(=O)[C@H]1O[C@@H](n2cnc3c(N)ncnc32)[C@H](O)[C@@H]1O` [NECA] had a pIC50 on Adenosine receptor A1 [1] of 7.77.

For the origin of these results see ChEMBL document CHEMBL1123754, “N6-phenyladenosines: pronounced effect of phenyl substituents on affinity for A2 adenosine receptors” (J Med Chem, 1987).
